In US20240269133A1, “METHODS OF TREATING INTERSTITIAL CYSTITIS/BLADDER PAIN SYNDROME” (Purdue Pharma L.P., priority 2021, published 2024):

What was measured:
[1] = system: CYP-induced visceral pain; test: Cyclophosphamide (CYP)-induced visceral pain model (acute cystitis), von Frey testing; format: in vivo, female Sprague-Dawley rats; settings: for AUC 1-6 g (allodynia) / Nociceptive threshold: mean ± s.e.m.
[2] = Urine concentration after a single oral dose (methyl cellulose suspension); format: in vivo, humans; settings: human
[3] = 30 mg/kg p.o., overall 2-24 h after CYP

CC(C)Cc1ccc(C(C)C(=O)O)cc1 (centres unmarked) [Ibuprofen, reference compound]
Effect on nociceptive scores vs vehicle ([1]; 300 mg/kg p.o., all along the observation period (2-24 h)): significantly decreased
Effect on nociceptive threshold vs vehicle ([1]; 300 mg/kg p.o., overall 2-24 h after CYP): significant overall increase

O=C(O)c1nc2ccccc2n([C@H]2C[C@H]3CCC[C@@H](C2)N3C2CC3CCCC(C3)C2)c1=O (some centres unmarked) [compound of formula (IA)]
Urine concentration, mean ([2]; 0.2 mg single oral dose, 0 to 8 h): 2311 nM
Urine concentration, mean ([2]; 0.2 mg single oral dose, 8 to 16 h): 394 nM
Urine concentration, mean ([2]; 0.2 mg single oral dose, 16 to 24 h): BQL
Urine concentration, mean ([2]; 0.2 mg single oral dose, 24 to 32 h): BQL
Urine concentration, mean ([2]; 0.2 mg single oral dose, 32 to 40 h): BQL
Urine concentration, mean ([2]; 0.2 mg single oral dose, 40 to 48 h): BQL
Urine concentration, mean ([2]; 0.6 mg single oral dose, 0 to 8 h): 1641 nM
Urine concentration, mean ([2]; 0.6 mg single oral dose, 8 to 16 h): 531 nM
Urine concentration, mean ([2]; 0.6 mg single oral dose, 16 to 24 h): BQL
Urine concentration, mean ([2]; 0.6 mg single oral dose, 24 to 32 h): BQL
Urine concentration, mean ([2]; 0.6 mg single oral dose, 32 to 40 h): BQL
Urine concentration, mean ([2]; 0.6 mg single oral dose, 40 to 48 h): BQL
Urine concentration, mean ([2]; 2 mg single oral dose, 0 to 8 h): 10809 nM
Urine concentration, mean ([2]; 2 mg single oral dose, 8 to 16 h): 1440 nM
Urine concentration, mean ([2]; 2 mg single oral dose, 16 to 24 h): 400 nM
Urine concentration, mean ([2]; 2 mg single oral dose, 24 to 32 h): BQL
Urine concentration, mean ([2]; 2 mg single oral dose, 32 to 40 h): BQL
Urine concentration, mean ([2]; 2 mg single oral dose, 40 to 48 h): BQL
Urine concentration, mean ([2]; 10 mg single oral dose, 0 to 8 h): 30964 nM
Urine concentration, mean ([2]; 10 mg single oral dose, 8 to 16 h): 14181 nM
Urine concentration, mean ([2]; 10 mg single oral dose, 16 to 24 h): 1994 nM
Urine concentration, mean ([2]; 10 mg single oral dose, 24 to 32 h): 535 nM
Urine concentration, mean ([2]; 10 mg single oral dose, 32 to 40 h): 240 nM
Urine concentration, mean ([2]; 10 mg single oral dose, 40 to 48 h): BQL
AUC 1-6 g (allodynia) ([1]; 30 mg/kg p.o., +2 h after CYP): 19.8±6.9 % scores × g
Nociceptive threshold ([1]; 30 mg/kg p.o., +2 h after CYP): 6.6 ± 0.8 g
AUC 1-6 g (allodynia) ([1]; 30 mg/kg p.o., +3 h after CYP): 19.3±6.3 % scores × g
Nociceptive threshold ([1]; 30 mg/kg p.o., +3 h after CYP): 6.3 ± 1.2 g
AUC 1-6 g (allodynia) ([1]; 30 mg/kg p.o., +4 h after CYP): 34.1±7.9 % scores × g
Nociceptive threshold ([1]; 30 mg/kg p.o., +4 h after CYP): 4.8 ± 0.8 g
AUC 1-6 g (allodynia) ([1]; 30 mg/kg p.o., +24 h after CYP): 61.8±15.7 % scores × g
Nociceptive threshold ([1]; 30 mg/kg p.o., +24 h after CYP): 3.7 ± 0.8 g
Effect on nociceptive threshold vs vehicle ([1]; 30 mg/kg p.o., CYP-injected rats, overall 2-24 h): overall inhibitory effect
Effect on nociceptive scores vs vehicle ([1]; 30 mg/kg p.o., from 2 h up to 24 h after CYP): significant decrease
Effect on AUC 1-6 g vs vehicle [1, 3]: overall decrease
Effect on CYP-induced AUC 6-26 g increase (hyperalgesia) vs vehicle [1, 3]: significant overall inhibitory effect
